The text below walks through data of article PMC3605511, “Tumor P-Glycoprotein Correlates with Efficacy of PF-3758309 in in vitro and in vivo Models of Colorectal Cancer” (Frontiers in Pharmacology, 2013).

Like-named read-outs stand apart in the source and are kept apart here. Some results are limits rather than exact numbers.

Assay [1] relates to CUCRC006 CRC PDTX model. Kind of assay: Patient derived tumor xenograft efficacy, CUCRC006. It counts as in vivo, mice. The conditions noted are these: 25 mg/kg orally twice daily, 22–56 days, end of study tumor volumes. On the procedure: (§1) For patient tumor xenografts, surgical specimens of patients undergoing either removal of a primary or metastatic tumor at the University of Colorado Hospital are implanted subcutaneously into five mice for each patient with a 10-G trochar. After a subsequent growth and passage in mice, tumors are excised, and expanded into cohorts for treatment (n = 6–15 per group). Mice were treated with PF-309 or vehicle (0.5% methylcellulose) for 22–56 days (until control tumor volume reach ∼1500 mm^3) twice daily (BID) by oral gavage (PO). Monitoring of mice and measurements of tumors were conducted as described above. % Growth Inhibition= (average control volume−average treated volume)/average control volume×100% In addition to the cell line xenografts, we also treated 12 different patient derived tumor xenograft (PDTX) CRC models with PF-309 (Figure 6). We were unable to assess how ABCB1 gene expression correlated with efficacy in these models. The PDTX models are propagated in vivo, are not immortalized, and are not grown in in vitro culture. […] Tumor and plasma sample pairs were collected from animals at the end of study for eight tumor models (three cell line xenografts and five PDTX models) and concentrations of PF-309 were measured. […]
(In general: A xenograft is tissue or cells of one species grown in another, often human tumour cells in immunodeficient mice.)

The test system of assay [2] is RKO. Kind of assay: Cell proliferation assay, RKO. The conditions noted are these: Homo sapiens, 72 h, SRB assay. It counts as cell-based. On the procedure: (§2) Cytotoxic/proliferation effects were determined using the sulforhodamine B (SRB) assay (Skehan et al., [1990]) or by resazurin. Briefly, cells in logarithmic growth phase were transferred to 96 well flat bottom plates with lids. One-hundred microliter cell suspensions containing 1500–5000 viable cells were plated into each well and incubated overnight prior to exposure with increasing concentrations of PF-309 for 3–5 days, dependent upon cell type. Media was removed and cells were fixed with cold 10% trichloroacetic acid for 30 min at 4°C. Cells were then washed with water and stained with 0.4% SRB (Fisher Sci., Pittsburgh, PA, USA) for 30 min at room temperature, washed again with 1% acetic acid, followed by stain solubilization with 10 mM tris at room temperature. The plate was then read on a plate reader (Biotek Synergy 2, Winooski, VT, USA) set at an absorbance wavelength of 565 nm. Cell proliferation curves were derived from the raw absorbance (OD) data.
(§3) Since PF-309 appeared to be a strong P-gp and BCRP substrates, we sought to evaluate if the transporters influenced sensitivity in vitro. We evaluated the sensitivity of CRC cell lines to PF-309 treatment in a panel of 27 lines. Cells were exposed to PF-309 at a range of concentrations for 72 h and cell content measured by SRB assay (see Pitts et al., [2013]). […]
In general terms: In SRB staining, fixed cells bind dye roughly in proportion to their protein.

Assay [3] concerns COLO205. Kind of assay: Cell proliferation assay, COLO205. Type of assay: cell-based. The conditions noted are these: Homo sapiens, COLO 205; COLO205, 72 h, SRB assay. How it is done: as §2, §3
For assay [4], the system named is CUCRC026 CRC PDTX model. Kind of assay: Patient derived tumor xenograft efficacy, CUCRC026. Type of assay: in vivo, mice. The conditions noted are these: 25 mg/kg orally twice daily, 22–56 days, end of study tumor volumes. On the procedure: as §1
For assay [5], the system named is CRC, breast, and non-small cell lung cancer cell lines. Kind of assay: Proliferation by resazurin, expanded panel of 71 cell lines. Type of assay: cell-based. The conditions noted are these: Homo sapiens, printed over a group of bars, cell lines covered not named. How it is done:
as §2, §3

Assay [6] deals with DLD-1. Nature of the assay: Cell proliferation assay, DLD-1. It counts as cell-based, human. On the procedure:
as §2
In a subset of CRC cell lines, western blotting, and rhodamine efflux was used to verify the expression and function of P-gp. Consistent with the gene expression data, the sensitive cell lines, RKO, HCT116, and Colo205 show no P-gp expression and no functional P-gp, and the resistant lines, SW948, HCT15, and SW1116 express functional P-gp (Figures 3A,B). […]

Assay [7] deals with CUCRC042 CRC PDTX model. Nature of the assay: Patient derived tumor xenograft efficacy, CUCRC042. It counts as in vivo, mice. The conditions noted are these: 25 mg/kg orally twice daily, 22–56 days, end of study tumor volumes. On the procedure: as §1
In assay [8] the test system is CUCRC047 CRC PDTX model. Nature of the assay: Patient derived tumor xenograft efficacy, CUCRC047. Type of assay: in vivo, mice. The conditions noted are these: 25 mg/kg orally twice daily, 22–56 days, end of study tumor volumes. On the procedure:
as §1

The subject of assay [9] is SW48. Nature of the assay: Cell proliferation assay, SW48. It counts as cell-based. The conditions noted are these: Homo sapiens; SW48, 72 h, SRB assay. On the procedure: as §2, §3
Assay [10] deals with HCT15. Nature of the assay: Cell proliferation assay, HCT15. Type of assay: cell-based. The conditions noted are these: Homo sapiens, HCT-15. How it is done: as §2, §3
For assay [11], the system named is SW620. Kind of assay: Cell proliferation assay, SW620. The conditions noted are these: Homo sapiens, SW-620; SW620, 72 h, SRB assay. It counts as cell-based. How it is done: as §2, §3
The subject of assay [12] is GEO cell line xenograft. Kind of assay: CRC cell line xenograft efficacy, GEO. Type of assay: in vivo, mice. The conditions noted are these: 25 mg/kg orally twice daily, 14–28 days, end of study tumor volumes. On the procedure:
For cell line xenografts, CRC cells were harvested in exponential phase growth and resuspended in a 1:1 mixture of serum-free RPMI 1640 and Matrigel (BD Biosciences). Five to ten million cells per mouse were injected subcutaneously into the flank using a 23-gauge needle. Mice were monitored daily for signs of toxicity and were weighed twice weekly. Tumor size was evaluated twice per week by caliper measurements using the following formula: tumor volume = length × width^2 × 0.52. When tumors reached 200–300 mm^3 mice were randomized into two groups with at least 10 tumors per group. Mice were then treated for 14–28 days (until control tumor volume reach ∼1500 mm^3) with either vehicle control (0.5% methylcellulose), or PF-3758309 (25 mg/kg) twice daily by oral gavage.
Human tumor xenograft models were used to evaluate the efficacy of PF-309 in vivo. Eleven different CRC cell line tumor xenografts were treated with 25 mg/kg PF-309 twice daily by oral gavage for 14–28 days (until control tumor volumes reached ∼1500 mm^3). Tumor volumes were measured throughout the study and the % growth inhibition was calculated from the average end of study tumor volumes by:
% Growth Inhibition= (average control volume−average treated volume)/average control volume×100%

In assay [13] the test system is CUCRC036 CRC PDTX model. Kind of assay: Patient derived tumor xenograft efficacy, CUCRC036. It counts as in vivo, mice. The conditions noted are these: 25 mg/kg orally twice daily, 22–56 days, end of study tumor volumes. How it is done:
as §1

In the case of `Cc1nc(Nc2n[nH]c3c2CN(C(=O)N[C@H](CN(C)C)c2ccccc2)C3(C)C)c2sccc2n1` [PF-309], the “% Growth inhibition” value in [1] is on record as 32%; in assay [4], 30%; in assay [7], 52%; in assay [8], −24%; in assay [12], 42%; in assay [13], 35%. In addition, the IC50 (usually the concentration that inhibits the measured activity by half) in assay [2] is 0.0036 ± 0.0001 µM; in [3], 0.0042 ± 0.0014 µM; in assay [5], above 0.1 µM; in [6] (Homo sapiens, DLD-1, PF-309 alone, 72 h), 0.278 µM; in assay [9] it was 0.0119 ± 0.0044 µM; in assay [10] (HCT15, 72 h, SRB assay, read-out: IC50) it was above 1 µM. In addition, the IC50 in assay [10] (HCT15, PF-309 alone, 72 h (Table 2), read-out: PF-309 IC50) is 0.78 µM; in assay [11], 0.005 ± 0.0031 µM. For the same compound, in assay [6] (DLD-1 cells, P-gp knockdown vs control shRNA), the “shift in the IC50 by shRNA knockdown of P-gp” value was “four to six fold”.
